Test results reported in the COVID Moonshot data (paper PMC11187573), “Identification of SARS-CoV-2 Mpro inhibitors through deep reinforcement learning for de novo drug design and computational chemistry approaches” (RSC Medicinal Chemistry, 2024).

Legend:
[1] = target: SARS-CoV-2 Main Protease (SARS-CoV-2) (UniProt P0DTD1)
[2] = target: SARS-CoV-2 Main Protease (SARS-CoV-2) (UniProt P0DTD1); remark: listed apart in the source

Structure (SMILES) | inhibition ([1]; 50.0 µM) | inhibition ([2]; 20.0 µM) | inhibition ([2]; 50.0 µM) | relative solubility at 20 uM | relative solubility at 100 uM | inhibition ([1]; 20.0 µM) | IC50 [1]
COC(=O)C(c1ccccc1Cl)N1CCC2SC(=O)C=C2C1 (configuration not stated) | 11.5% | -46.2% | -5.13% | 0.82 | 0.81 |  | 
Cc1ccc(C)c(NC(=O)[C@H]2CNC(=O)C2)c1 (stereo in doubt) | 0% | -14.9% | -9.38% | 0.98 | 0.98 |  | 
C=CC(=O)N(C(C(=O)NC(C)(C)C)c1cccnc1)[C@@H]1C[C@@H]1c1ccccc1 (stereo in doubt) |  | -14.4% | -6.46% | 0.97 | 0.88 | 0% | 
COc1ccc(-c2cccc(S(=O)(=O)N3CCN(C(C)=O)CC3)c2)cc1 | 0% | -3.55% | 2.93% | 0.95 | 0.93 |  | 
O=C(Cc1cccc(Cl)c1)Nc1cnns1 | 48.7% | 4.12% | 3.34% | 0.99 | 0.99 |  | 
C=CC(=O)N(c1cc(C(C)(C)C)on1)C(C(=O)NCCc1cccc(F)c1)c1cncc(C)c1 (configuration not stated) | 0% | 17.5% | 24.8% | 1 | 0.91 |  | 
CNS(=O)(=O)c1ccc(C(C)NC(=O)NC(C)(C)C)cc1 (configuration not stated) | 0% | -0.809% | -0.25% | 1 | 1 | 0% | 
CC(NC(=O)c1ccc2cn[nH]c2c1)C(=O)Nc1ccc(-n2cnc3ccccc32)cc1 (configuration not stated) | 12.8% | 13% | 3.73% | 0.7 | 0.51 |  | 
C=CC(=O)N(c1ccc(C(C)(C)C)cc1)C(C(=O)NC(C)(C)C)c1cncc(OC)c1 (configuration not stated) | 8.47% | -13.4% | -6.87% | 1 | 0.99 | 0.0741% | 
COc1ccc2[nH]cc(CCNC(C)=O)c2c1 |  | 1.37% | -0.962% | 1 | 0.99 | 0% | 
Cc1noc(C)c1NC(=O)Cc1cccc(Cl)c1Cl | 0% | -2.3% | -6.85% | 1 | 1 |  | 
O=C(CCl)N1CCN(S(=O)(=O)c2cccs2)CC1 | 97.8% | 99.3% | 99.6% | 1 | 1 | 97.9% | 0.557 µM
O=C(c1cc(=O)[nH]c2cc(F)ccc12)N1CCN(S(=O)(=O)c2ccccc2)CC1 | 0% | 12.6% | 30.7% | 0.98 | 0.99 |  | 
O=C(CC(=O)N1CCOCC1)Nc1ccccc1 | 0% |  | -26.9% | 1 | 1.01 | 0% | 
C=CC(=O)N(c1ccc2c(ccn2C)c1)C(C(=O)NC(C)(C)C)c1cccnc1 (configuration not stated) |  | -17.6% | -18% | 1.01 | 1 | 0% | 
O=C(c1ccccc1)N1CCN(C(=O)C2CCOCC2)CC1 | 5.34% | 2.9% | 6.27% | 1 | 1 | 0.98% | 
Cc1cc(C)cc(NC(=O)Cc2cnn(C)c2C)c1 | 0% | -12.1% | -5.28% | 1 | 1.01 |  | 
COc1ccc2c(c1)C(C(=O)Nc1cncnc1C)CCC2 (configuration not stated) | 2.78% | 6.97% | -24.1% | 1 | 1 |  | 
N#Cc1cncc(NC(=O)Nc2cccnc2)c1 | 17.4% | 7.07% | 17.1% | 1 | 1 |  | 
CC(NC(=O)c1ccccc1OC1CCCCC1)c1cnccn1 (configuration not stated) | 0% |  | 11.2% | 1 | 1 | 0% | 
CNC(=O)OC1CCN(C(=O)c2ccncc2)CC1 | 2.15% |  | -25.3% | 1 | 1 | 0.65% | 
O=C(NCc1ccno1)c1ccccc1OC1CCCCC1 |  | 4.09% | 5.82% | 1 | 1 | 0% | 
C=CC(=O)N(c1ccc(C(C)(C)C)cc1)C(C(=O)NCCc1cccc(F)c1)c1cncc(C#N)c1 (configuration not stated) | 89.2% | 49.6% | 87.1% | 0.57 | 0.46 |  | 2.47 µM
Cc1ccncc1NC(=O)CN1CCOCC1 | 5.7% | -2.39% | -7.76% | 1 | 1 |  | 
CCc1nnnn1-c1ccccc1NC(=O)C1(c2cncc(Br)c2)CC1 | 0% |  | 10.2% | 1 | 1 | 0% | 
COc1cccc2c1OCC(NC(=O)c1cc(=O)[nH]c3ccc(F)cc13)C2 (configuration not stated) | 11% | 2.25% | 19% | 0.96 | 0.81 |  | 
C=CC(=O)N(c1ccc(N(C)C)c(C)c1)C(C(=O)Nc1ccc(OC)cc1)c1cccnc1 (configuration not stated) | 2.05% | 2.56% | 7.05% | 0.88 | 0.77 | 0% | 

Structure (SMILES) | inhibition ([1]; 50.0 µM) | inhibition ([2]; 20.0 µM) | inhibition ([2]; 50.0 µM) | relative solubility at 20 uM | relative solubility at 100 uM | inhibition ([1]; 20.0 µM) | IC50 [1]
C=CC(=O)Nc1cccc(OC2CC(=O)N2)c1 (configuration not stated) | 2.88% | 5.39% | 2.19% | 1 | 1 |  | 
CC(=O)Nc1ccc(NCC(=O)Nc2cnccc2C)cc1 | 0% | -2.21% | -24.3% | 0.96 | 0.9 |  | 
Cc1cc(C(C)(C)C)ccc1OC[C@H](O)Cn1cnccc1=O (stereo in doubt) | 0% | -3.67% | 16.5% | 1.01 | 1 |  | 
CS(=O)(=O)c1ncc(Cl)c(C(=O)Nc2ccccc2Cc2ccccc2)n1 | 100% | 96.3% | 94.7% | 0.96 | 0.79 |  | 0.826 µM
Cc1cccc(NC2CCN(c3ccc(S(N)(=O)=O)cc3)CC2)c1 | 45.9% | -2.59% | -0.838% | 0.96 | 0.87 | 39.4% | 
C=CC(=O)N(c1ccc(C(C)(C)C)cc1)C(C(=O)NC(C)(C)C)c1cncc2ccccc12 (configuration not stated) | 0% | -17.7% | -17.5% | 0.85 | 0.56 | 0% | 
O=C(Nc1ccnnc1)NC(Cc1ccccc1)C(=O)N1CCCC1 (configuration not stated) | 0% | 0.0835% | 3.23% | 1 | 1 | 0% | 
C=C(CN(C)C)C(=O)N1Cc2ccccc2C(c2ccccc2)C1 (configuration not stated) |  | 0.735% | 10.3% | 1 | 0.97 | 0% | 
O=C(Cc1ccc(O)cc1)Nc1cccc2cc[nH]c12 | 0% | -9.57% | -4.9% | 1 | 1 |  | 
Cn1nncc1CC(=O)NC(c1ccccc1)c1nc2ccccc2n1C (configuration not stated) | 0% |  | 54.1% | 1 | 1 | 0% | 
C=CC(=O)N(c1cc(C(C)(C)C)on1)C(C(=O)Nc1c(C)cccc1CC)c1cccnc1 (configuration not stated) |  | 7.33% | 21.1% | 0.99 | 0.9 | 1.49% | 
COc1ccccc1OC1CCCN(C(=O)c2cc(=O)[nH]c3ccc(Cl)cc23)C1 (configuration not stated) | 0% | -0.617% | 5.27% | 0.99 | 0.93 |  | 
C=CC(=O)N(c1ccc(C(C)(C)C)cc1)C(C(=O)Nc1ccc(F)cc1C)c1cccnc1 (configuration not stated) | 1.37% | 5.61% | 13.9% | 0.96 | 0.91 |  | 
N#Cc1cc(CN2CCN(C(=O)CCl)CC2)c2ccccc2c1 |  | 83.6% | 93.1% | 0.85 | 0.79 | 97.6% | 1.16 µM
CO[C@@H](C)C(=O)Nc1cnccc1C (stereo in doubt) | 6.67% | 1.23% | 0.255% | 1 | 1.01 |  | 
O=C(CCl)N1CCN(Cc2cccc(CNC(=O)N3CCOCC3)c2)CC1 | 95.6% | 11.7% | 32.4% | 1 | 1 |  | 50.3 µM
C=CC(=O)N(c1ccc(C(C)C)nc1)C(C(=O)Nc1c(C)cccc1CC)c1cccnc1 (configuration not stated) |  | 5.61% | 12.5% | 1 | 0.95 | 0% | 
Cc1cc(-c2nc3ccccc3[nH]2)ccc1O | -3.73% | -10.3% | -36.8% | 0.99 | 1 |  | 
C=CC(=O)N(c1ccc(C(C)(C)C)cc1)C(C(=O)NC(C)(C)C)c1cncc(OC)c1C (configuration not stated) | 39% | 8.6% | 28.6% | 0.99 | 0.95 | 8.1% | 
C=CC(=O)N(C(C(=O)NC(C)(C)C)c1cccnc1)C1CC12CC(C)(C)C2 (configuration not stated) | 3.54% | 13% | 15.5% | 1 | 0.99 |  | 
CC(c1cccc(NC(=O)Cc2cnccc2Cl)c1)N1CCOCC1 (configuration not stated) | 3.87% | 2.12% | 3.92% | 0.97 | 0.92 | 0% | 
C=CC(=O)N(c1ccc(S(F)(F)(F)(F)F)cc1)C(C(=O)Nc1ccc(OC)cc1C)c1cccnc1 (configuration not stated) |  | 5.52% | 12.2% | 0.92 | 0.75 | 0% | 
C=CC(=O)N(c1ccc(C(C)(C)C)cc1)C(C(=O)NCCCC(=O)OCC)c1cccnc1 (configuration not stated) | 14.6% | 6.16% | 30.9% | 0.99 | 0.96 | 0% | 
O=C(Nc1cnccc1CO)[C@@H]1COc2ccc(Cl)cc21 (stereo in doubt) | 58.6% | 46.1% | 73.1% | 1.01 | 1 |  | 18.4 µM
O=C(Cc1ccc(F)cc1)Nc1cccc2cc[nH]c12 | 0% | -2.43% | -33.9% | 1 | 0.88 |  | 
C=CC(=O)N1CCCC(c2nc3ccccc3s2)C1 (configuration not stated) | 0% |  | 14.5% | 0.99 | 0.99 | 0% | 
C=CC(=O)N(c1cc(C(C)(C)C)on1)C(C(=O)Nc1cccc(CC)c1)c1cccnc1 (configuration not stated) |  | 15.6% | 43.1% | 0.87 | 0.76 | 6.79% | 
